Experiments:
[1] = target: T1, Gamma-aminobutyric acid receptor subunit rho-2 (Homo sapiens, UniProt P28476); assay: Activation of human rho2 GABA-C receptor at 34% of maximal GABA-induced response
[2] = target: T2, Gamma-aminobutyric acid receptor subunit rho-1 (Homo sapiens, UniProt P24046); assay: Antagonist activity against rho-1 subunit GABA-C receptor expressed in Xenopus oocytes; type: functional, cell-based; conditions: Oocyte
[3] = target: T1, Gamma-aminobutyric acid receptor subunit rho-2; assay: Partial agonist activity against human rho-2 subunit GABA-C receptor expressed in Xenopus oocytes; type: functional, cell-based, Oocyte
[4] = target: T2, Gamma-aminobutyric acid receptor subunit rho-1; assay: Partial agonist activity against human rho1 subunit GABA-C receptor expressed in Xenopus oocytes; type: functional, cell-based, Oocyte
[5] = target: GABA-A receptor; anion channel; assay: Affinity against recombinant Gamma-aminobutyric acid A (GABA-A) receptor; type: protein-complex assay
[6] = target: GABA-A receptor; anion channel; assay: Competitive antagonist activity against Gamma-aminobutyric acid A (GABA-A) receptor; type: functional
[7] = target: T2, Gamma-aminobutyric acid receptor subunit rho-1; assay: Partial agonist activity against rho-1 subunit GABA-C receptor expressed in Xenopus oocytes; type: functional, cell-based, Oocyte
[8] = target: GABA-A receptor; anion channel; assay: Potent antagonist activity against Gamma-aminobutyric acid A (GABA-A) receptor from rat cortex RNA expressed in Xenopus oocytes; type: functional, cell-based; conditions: oocyte
[9] = target: T1, Gamma-aminobutyric acid receptor subunit rho-2; assay: Partial agonist activity with low efficacy against rho-2 subunit GABA-C receptor expressed in Xenopus oocytes; type: functional, cell-based, Oocyte
[10] = target: T1, Gamma-aminobutyric acid receptor subunit rho-2; assay: Full agonist activity against human rho-2 subunit GABA-C receptor expressed in Xenopus oocytes; type: functional, cell-based, Oocyte
[11] = target: T2, Gamma-aminobutyric acid receptor subunit rho-1; assay: Partial agonist activity against rho-1 subunit GABA-C receptor expressed in Xenopus oocytes with low efficacy; type: functional, cell-based, Oocyte
[12] = target: T2, Gamma-aminobutyric acid receptor subunit rho-1; assay: Full agonist activity against human rho-1 subunit GABA-C receptor expressed in Xenopus oocytes; type: functional, cell-based, Oocyte
[13] = target: T1, Gamma-aminobutyric acid receptor subunit rho-2; assay: Partial agonist activity against rho-2 subunit GABA-C receptor expressed in Xenopus oocytes, higher intrinsic activity (Im 38%); type: functional, cell-based, Oocyte
[14] = target: GABA-C receptor (Homo sapiens) (UniProt P28476+A8MPY1+P24046); assay: Antagonist activity against rho subunit Gamma-aminobutyric acid C (GABA-C) receptor expressed in Xenopus oocytes; type: functional, cell-based; conditions: Oocyte
[15] = target: T2, Gamma-aminobutyric acid receptor subunit rho-1; assay: Partial agonist activity against rho-1 subunit GABA-C receptor expressed in Xenopus oocytes, low intrinsic activity (Im 3%); type: functional, cell-based, Oocyte
[16] = target: T2, Gamma-aminobutyric acid receptor subunit rho-1; assay: Partial agonist activity against human rho-1 subunit GABA-C receptor expressed in Xenopus oocytes; type: functional, cell-based, Oocyte
[17] = target: GABA-A receptor; anion channel; assay: Inhibitory activity against Gamma-aminobutyric acid A (GABA-A) receptor from rat cultured cortical neuron RNA expressed in Xenopus oocytes; type: functional, cell-based; conditions: oocyte
[18] = target: GABA-A receptor; anion channel; assay: Non-competitive antagonist activity against Gamma-aminobutyric acid A (GABA-A) receptor; type: functional, Rattus norvegicus
[19] = target: GABA-A receptor; anion channel; assay: Antagonist activity against Gamma-aminobutyric acid A (GABA-A) receptor; type: functional, Rattus norvegicus
GABA-C receptor = GABA-C receptor (Homo sapiens, UniProt A8MPY1+P24046+P28476); assay: Agonist activity against Gamma-aminobutyric acid type C (GABA-C) receptor derived from bovine retinal RNA expressed in Xenopus oocytes; type: functional, cell-based, Bos taurus, Oocyte
[20] = target: T1, Gamma-aminobutyric acid receptor subunit rho-2; assay: Partial agonist activity against homomeric rho-2 subunit GABA-C receptor expressed in Xenopus oocytes; type: functional, cell-based, Oocyte

T2 sequence (P24046 whole entry): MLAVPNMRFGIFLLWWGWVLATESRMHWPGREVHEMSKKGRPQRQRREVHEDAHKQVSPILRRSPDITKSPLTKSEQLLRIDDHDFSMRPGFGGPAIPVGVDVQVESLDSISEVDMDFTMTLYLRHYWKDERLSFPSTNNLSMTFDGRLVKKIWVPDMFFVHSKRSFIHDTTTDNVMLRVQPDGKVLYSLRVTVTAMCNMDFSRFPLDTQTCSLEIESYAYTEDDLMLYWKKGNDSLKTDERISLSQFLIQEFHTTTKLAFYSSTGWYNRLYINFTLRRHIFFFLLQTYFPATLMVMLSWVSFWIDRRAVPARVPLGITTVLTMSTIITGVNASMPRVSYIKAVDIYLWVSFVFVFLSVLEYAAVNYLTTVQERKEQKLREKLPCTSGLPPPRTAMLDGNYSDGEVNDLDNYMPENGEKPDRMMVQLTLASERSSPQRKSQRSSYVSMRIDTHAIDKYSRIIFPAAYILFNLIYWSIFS
T1 sequence (P28476 whole entry): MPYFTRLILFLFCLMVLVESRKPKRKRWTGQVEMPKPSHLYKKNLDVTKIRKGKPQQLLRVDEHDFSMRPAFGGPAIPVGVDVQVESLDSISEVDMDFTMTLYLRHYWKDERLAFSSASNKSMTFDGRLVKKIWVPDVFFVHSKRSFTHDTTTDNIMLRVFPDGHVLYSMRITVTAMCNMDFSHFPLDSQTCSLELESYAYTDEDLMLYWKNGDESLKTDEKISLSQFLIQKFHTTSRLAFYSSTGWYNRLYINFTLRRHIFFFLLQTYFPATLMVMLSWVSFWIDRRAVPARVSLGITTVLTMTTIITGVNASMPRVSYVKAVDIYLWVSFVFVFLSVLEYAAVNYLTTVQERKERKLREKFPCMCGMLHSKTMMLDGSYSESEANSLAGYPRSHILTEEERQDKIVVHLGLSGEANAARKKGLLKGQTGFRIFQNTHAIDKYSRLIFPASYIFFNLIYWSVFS
Chain of GABA-C receptor (Homo sapiens) (A8MPY1 whole entry, looked up): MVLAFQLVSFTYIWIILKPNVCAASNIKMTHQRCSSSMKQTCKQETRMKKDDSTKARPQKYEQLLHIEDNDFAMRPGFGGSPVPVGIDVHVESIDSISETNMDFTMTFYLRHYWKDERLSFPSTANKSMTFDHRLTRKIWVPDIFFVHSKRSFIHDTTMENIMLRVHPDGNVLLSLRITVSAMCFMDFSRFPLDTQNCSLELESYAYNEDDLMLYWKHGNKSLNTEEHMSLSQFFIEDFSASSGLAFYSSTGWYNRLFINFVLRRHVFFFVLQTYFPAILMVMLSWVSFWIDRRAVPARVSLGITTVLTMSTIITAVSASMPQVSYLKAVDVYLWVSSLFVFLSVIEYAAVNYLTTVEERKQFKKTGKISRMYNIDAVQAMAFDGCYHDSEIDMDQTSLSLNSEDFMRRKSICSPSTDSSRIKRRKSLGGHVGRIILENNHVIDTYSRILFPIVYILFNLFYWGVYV
Chain of GABA-C receptor (Homo sapiens) (P24046 whole entry, looked up): as the sequence (P24046 whole entry) above
Chain of GABA-C receptor (Homo sapiens) (P28476 whole entry, looked up): as the sequence (P28476 whole entry) above
Chain of GABA-C receptor (P28476 whole entry): as above
Chain of GABA-C receptor (A8MPY1 whole entry): as the sequence (A8MPY1 whole entry, looked up) above
Chain of GABA-C receptor (P24046 whole entry): as the sequence (P24046 whole entry) above

C/C(=C\CN)C(=O)O
EC50 [1]: 101 µM
Kb [2]: 45 µM

NC/C=C\C(=O)O
EC50 [3]: 70 µM
EC50 [4]: 74 µM

O=c1cc(-c2cccc([N+](=O)[O-])c2)oc2cccc(Br)c12
Ki [5]: 0.03 µM

c1ccc2c(NCCCCCCCNc3c4c(nc5ccccc35)CCCC4)c3c(nc2c1)CCCC3
IC50 [6]: 6 µM

NC/C=C(\F)C(=O)O
EC50 [7]: 2.43 µM

O=S(=O)(O)C1CCNCC1
Kd [8]: 104 µM

NC[C@@H]1C[C@@H]1C(=O)O (relative stereo)
EC50 [9]: 17.5 µM
EC50 [10]: 34.5 µM
EC50 [11]: 20 µM
EC50 [12]: 68 µM

COC(=O)[C@H]1[C@@H](OC(=O)c2ccccc2)C[C@@H]2CC[C@H]1N2C [COCAINE]
IC50 [5]: 127 µM

NCCCS(=O)O [HOMOHYPOTAURINE]
EC50 [4]: 4.6 µM

O=C(O)Cc1c[nH]cn1 [IMIDAZOLE ACETIC ACID]
EC50 [13]: 3 µM
Kb [14]: 1.5 µM
EC50 [15]: 16 µM

NCc1cc(=O)[nH]o1 [MUSCIMOL]
Kd [16]: 2.3 µM
Kd [3]: 1.4 µM

CCCCCCCC/C=C\CCCCCCCC(N)=O [OLEAMIDE]
EC50 [17]: 15 µM

Cc1nccn1CC1CCc2c(c3ccccc3n2C)C1=O (centres undefined) [ONDANSETRON]
IC50 [18]: 10 µM

Cc1ccc2c(c1)c1c3n2CCNC3CCC1 (centres undefined) [PIRLINDOLE]
EC50 [19]: 12 µM

NC/C=C/C(=O)O [t-4-AMINOCROTONIC ACID (TACA)]
Kd (GABA-C receptor): 0.6 µM
EC50 [20]: 0.4 µM
